Experimental data: US8518942B2, “Caspase inhibitors and uses thereof” (Buck Institute for Research on Aging, priority 2008, dated 2013)

Key:
Type in all cases: biochemical
[1] = biological target: T1, caspase-6 (Homo sapiens, UniProt P55212); assay: Irreversible inhibitor kinetic assay (progress curve), caspase-6, substrate Ac-DEVD-AMC; details: casp-6; duplicate, SD included
T1 construct: gift: Guy Salvesen's laboratory, Burnham Institute (La Jolla, Calif.)
T1 sequence (P55212 24-179 limits assumed): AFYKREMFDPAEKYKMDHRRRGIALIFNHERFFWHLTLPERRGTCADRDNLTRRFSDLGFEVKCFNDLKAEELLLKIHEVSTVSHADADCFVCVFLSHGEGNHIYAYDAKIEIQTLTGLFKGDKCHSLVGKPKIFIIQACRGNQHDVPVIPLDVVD
T1 sequence (P55212 194-293 limits assumed): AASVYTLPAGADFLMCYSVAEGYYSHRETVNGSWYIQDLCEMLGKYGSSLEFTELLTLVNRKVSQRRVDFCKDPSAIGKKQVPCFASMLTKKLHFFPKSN
Text: (§1) Caspases-3, -6, -7, -8, and -9 were provided by Guy Salvesen's laboratory at the Burnham Institute (La Jolla, Calif.). Caspase-1 was purchased from EMD Biosciences (San Diego, Calif.) and Caspase-2 was purchased from Biomol International (Plymouth Meeting, Pa.). Caspase substrates Ac-DEVD-AMC, Ac-VDVAD-AFC, and Ac-LEHD-AFC were purchased from EMD Biosciences (San Diego, Calif.) and Ac-VDVAD-AMC was purchased from Biomol International (Plymouth Meeting, Pa.). The proteolytic cleavage of N-acyl aminocoumarins by caspases was conducted in Dynatech Microfluor fluorescence 96-well microtiter plates, and readings were taken on a Molecular Devices Spectra Max Gemini XS instrument. The excitation wavelength was 370 nm and the emission wavelength was 455 nm for AMCA substrates, the excitation wavelength was 355 nm and the emission wavelength was 450 nm for peptidyl AMC substrates, and the excitation wavelength was 430 nm and the emission wavelength was 535 nm for peptidyl AFC substrates.
(§2) The kinact/Ki for inhibitors were determined under pseudo-first order conditions using the progress curve method (Eckici et al. (2006) J. Med. Chem., 49: 5728-5749; Bieth (1995) Meth. Enzymol., 248: 59-84). Assay wells contained a mixture of inhibitor and AMC or AFC substrate in buffer. Aliquots of caspase were added to each well to initiate the assay. Hydrolysis of the AMC or AFC substrate was monitored fluorometrically for 45 min. To determine the inhibition parameters, time points for which the control ([I]=0) was linear were used. For each inhibitor, a kobs was calculated for at least four different concentrations of inhibitors via a nonlinear regression of the data according to the equation P=(vi/kobs)[1−exp(−kobst) (where product formation=P, […], and the first-order rate constant=kobs). If kobs varied linearly with [I], then the association constant kass was determined by linear regression analysis using kobs=(kass[I])/(1+[S]/Km) where [S] is the concentration of the substrate. […] Inhibition was measured in duplicate and the average of is reported. […]

[2] = biological target: T1, caspase-6; assay: Blots of full-length huntingtin (23Q & 148Q) treated with caspase-6 plus inhibitor; details: for Proteolysis of Htt at amino acid 586 (caspase-6 site): 1-100 nM; for Inhibition of caspase-6 cleavage of full-length huntingtin (blot): 23Q & 148Q, at 1.0 μM and 10 μM; for Blocking the cleavage of Htt at amino acid 586 mediated by caspase-6: conclusion
[3] = biological target: T2, caspase-7 (Homo sapiens, UniProt P55210); assay: Irreversible inhibitor kinetic assay (progress curve), caspase-7, substrate Ac-DEVD-AMC; details: casp-7; duplicate, SD included
T2 construct: gift: Guy Salvesen's laboratory, Burnham Institute (La Jolla, Calif.)
T2 sequence (P55210 24-198 limits assumed): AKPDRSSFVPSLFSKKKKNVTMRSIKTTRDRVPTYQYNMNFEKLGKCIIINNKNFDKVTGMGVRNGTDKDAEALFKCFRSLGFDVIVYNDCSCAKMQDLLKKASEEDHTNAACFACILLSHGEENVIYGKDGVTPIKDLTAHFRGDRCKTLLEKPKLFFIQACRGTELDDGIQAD
T2 sequence (P55210 207-303 limits assumed): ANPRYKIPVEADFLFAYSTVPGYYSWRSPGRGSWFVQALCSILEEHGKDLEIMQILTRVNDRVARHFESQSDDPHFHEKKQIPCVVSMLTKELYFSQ
Text: as §1, §2

Row | kinact/Ki [1] | Proteolysis of Htt at amino acid 586 (caspase-6 site) [2] | Inhibition of caspase-6 cleavage of full-length huntingtin (blot) [2] | Blocking the cleavage of Htt at amino acid 586 mediated by caspase-6 [2] | kinact/Ki [3] | SMILES
1 | 32,950 ± 1,650 s^−1/M^−1 | blocked | inhibition | affective at blocking | 57,250 ± 1,550 s^−1/M^−1 | C[C@@](NC(=O)CCCC(=O)O)(c1cn([C@@H](CC(=O)O)C(=O)COc2c(F)c(F)cc(F)c2F)nn1)C1CCCCC1 [MJL-002i]
2 | 45,750 ± 450 s^−1/M^−1 | blocked | inhibition | affective at blocking | 34,200 ± 3,800 s^−1/M^−1 | C[C@@](NC(=O)Cc1ccccc1)(c1cn([C@@H](CC(=O)O)C(=O)COc2c(F)c(F)cc(F)c2F)nn1)C1CCCCC1 [MJL-003i]
3 | 23,100 ± 1,900 s^−1/M^−1 | blocked | inhibition | affective at blocking | 27,700 ± 2,000 s^−1/M^−1 | C[C@@](NS(=O)(=O)Cc1ccccc1)(c1cn([C@@H](CC(=O)O)C(=O)COc2c(F)c(F)cc(F)c2F)nn1)C1CCCCC1 [MJL-001i]
